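Following 48 hours of exposure in 96-well plates, responses at five concentrations were used to interpolate endpoints linearly. GI50 = concentration required for 50% inhibition of growth. TGI denotes the concentration required for complete inhibition of growth.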
Experiments:
Assay in all cases: DTP human tumour cell line panel, 48 h
[1] = system: HCT-116 colon
[2] = system: 786-0 renal
[3] = system: NCI-H226 lung
[4] = system: SK-MEL-28 melanoma
[5] = system: NCI-H23 lung
[6] = system: OVCAR-8 ovarian
[7] = system: U251 CNS
[8] = system: A549 NSCLC
[9] = system: SNB-75 CNS
[10] = system: UACC-62 melanoma
[11] = system: CCRF-CEM leukemia
[12] = system: UACC-257 melanoma
[13] = system: NCI-H460 lung
[14] = system: SK-OV-3 ovarian

SMILES | TGI [1] [µM] | TGI [2] [µM] | TGI [3] [µM] | TGI [4] [µM] | TGI [5] [µM] | TGI [6] [µM] | TGI [7] [µM] | TGI [8] [µM] | TGI [9] [µM] | TGI [10] [µM] | TGI [11] [µM] | TGI [12] [µM] | TGI [13] [µM] | TGI [14] [µM] | GI50 [5] [µM] | GI50 [9] [µM] | GI50 [10] [µM] | GI50 [11] [µM] | GI50 [12] [µM]
O=[N+]([O-])c1cc(Cl)cc2cc(Cl)cnc12 | > 100 | > 100 | > 100 | > 100 | > 100 | > 100 | > 100 | > 100 | 98 | > 100 | > 100 | > 100 | > 100 | – | – | – | – | – | –
CCOC(=O)CCC(NC(=O)c1ccc(OCc2nc3ccccc3n3cccc23)cc1)C(=O)OCC (configuration not stated) | > 100 | > 100 | > 100 | > 100 | > 100 | > 100 | > 100 | > 100 | > 100 | > 100 | > 100 | > 100 | > 100 | > 100 | – | – | – | – | –
COc1cc([N+](=O)[O-])ccc1NC1=CC(=O)CCC1 | > 100 | > 100 | > 100 | > 100 | > 100 | > 100 | > 100 | > 100 | > 100 | > 100 | > 100 | > 100 | > 100 | > 100 | – | – | – | – | –
COc1ccc(/C=C/C(=O)N[C@@H]2C(=O)N3[C@@H]2SC(C)(C)[C@@H]3C(=O)O)cc1 | > 100 | > 100 | > 100 | > 100 | > 100 | > 100 | > 100 | > 100 | > 100 | > 100 | > 100 | > 100 | > 100 | > 100 | – | – | – | – | –
O=C(Cc1ccc(Cl)c(Cl)c1)N(CCc1ccc(Cl)c(Cl)c1)CCN1CCCC1 | 3.09 | 3 | 4.91 | 2.99 | 3.95 | 3.82 | 3.15 | 4.25 | 4.31 | 3.27 | 3.12 | 3.51 | 3.39 | 7.49 | – | – | – | – | –
COc1ccc2[nH]c3c(c2c1)COc1ccccc1C3=O | > 100 | > 100 | > 100 | > 100 | > 100 | > 100 | > 100 | > 100 | > 100 | > 100 | > 100 | > 100 | > 100 | > 100 | – | – | – | – | –
c1cncc(-c2ncc3cccnc3n2)c1 | > 100 | > 100 | > 100 | – | > 100 | > 100 | > 100 | > 100 | > 100 | > 100 | > 100 | > 100 | > 100 | > 100 | – | – | – | – | –
N#CC(c1cc2c(cc1Br)OCO2)N1CCOCC1 (configuration not stated) | > 100 | > 100 | > 100 | > 100 | > 100 | > 100 | – | > 100 | 99.6 | > 100 | > 100 | > 100 | > 100 | > 100 | – | – | – | – | –
CNC(=O)CCCN(C)C(=O)CCCCC(=O)N(C)C | > 100 | > 100 | > 100 | > 100 | > 100 | > 100 | > 100 | > 100 | > 100 | > 100 | > 100 | > 100 | > 100 | > 100 | – | – | – | – | –
C=C1c2nc3ccccc3n2C=C(c2ccccc2)N1c1ccccc1 | > 100 | > 100 | > 100 | – | > 100 | > 100 | > 100 | > 100 | > 100 | > 100 | > 100 | > 100 | 79.6 | > 100 | – | – | – | – | –
CN(CCCCN(C)CCc1ccc(Cl)c(Cl)c1)CCCCN1CCCC1 | 2.93 | 2.55 | 4.01 | 1.06 | 3.41 | 6.25 | 1.97 | 3.35 | 3.72 | 3.42 | 0.39 | 3.06 | 2.98 | 6.05 | – | – | – | – | –
O=[N+]([O-])O.[Ga] | > 10000 | > 10000 | 9510 | > 10000 | > 10000 | > 7940 | 4930 | > 10000 | > 7110 | > 10000 | 3190 | > 10000 | 8990 | 390 | 1260 | 1250 | 892 | – | –
CCN(CC)CCCNc1nc2ccccc2c2[nH]c3ccc(OC)cc3c12 | 1.95 | 2.41 | 9.83 | 3.11 | 2.93 | 2.41 | 3.23 | 3.37 | 3.35 | > 10 | 3.87 | 3.2 | 1.57 | > 10 | – | – | – | – | –
OC1CN2CCS[C@H]2C(O)C1O (some centres not stated) | > 100 | > 100 | > 100 | > 100 | > 100 | > 100 | > 100 | > 100 | > 100 | > 100 | > 100 | > 100 | > 100 | > 100 | – | – | – | – | –
NS(=O)(=O)c1ccc(CNc2nc(-c3cccs3)nc3ccc(I)cc23)cc1 | 28.1 | 37.6 | 40.1 | 40.2 | 38.4 | 37.7 | 37.7 | 28.5 | 47.1 | 31.5 | 59.7 | 27.5 | 29.6 | 52.6 | – | – | – | 21.8 | 14
CCOC(=O)[C@@]12CCC(C1=O)[C@](C)(O)C[C@@H]2c1ccccc1 | > 100 | 68.8 | > 100 | > 100 | > 100 | > 100 | > 100 | > 100 | > 100 | > 100 | > 100 | > 100 | > 100 | 96.9 | – | – | – | – | –
Oc1c(C2=N[C@H]3CCCC[C@@H]3N2)ccc2ccccc12 | > 100 | > 100 | > 100 | > 100 | > 100 | > 100 | > 100 | > 21.8 | > 100 | > 100 | > 100 | > 100 | > 100 | > 100 | – | – | – | – | –

SMILES | TGI [1] [µM] | TGI [2] [µM] | TGI [3] [µM] | TGI [4] [µM] | TGI [5] [µM] | TGI [6] [µM] | TGI [7] [µM] | TGI [8] [µM] | TGI [9] [µM] | TGI [10] [µM] | TGI [11] [µM] | TGI [12] [µM] | TGI [13] [µM] | TGI [14] [µM] | GI50 [5] [µM] | GI50 [9] [µM] | GI50 [10] [µM] | GI50 [11] [µM] | GI50 [12] [µM]
CC(C)n1c2c([n+](C)c1/C=C/c1ccccc1)C(=O)c1ccccc1C2=O | 0.433 | 8.11 | 2.2 | 1.6 | 0.412 | 1.96 | 0.738 | 4.68 | 1.48 | 0.644 | 10.9 | 0.123 | 2.43 | 1.07 | – | – | – | – | –
COc1ccc([C@H]2CC(=O)NCCCCN2)cc1 | > 100 | > 100 | > 100 | > 100 | > 100 | > 100 | > 100 | > 100 | > 100 | > 100 | > 100 | > 100 | > 100 | > 100 | – | – | – | – | –
COC(=O)C1(Cc2ccccc2)Cc2ccc3c(c2C1=O)CCC3 (configuration not stated) | > 100 | > 100 | > 100 | > 100 | > 78.6 | > 100 | > 100 | > 100 | > 100 | > 100 | > 89.5 | 99.1 | > 100 | > 100 | – | – | – | – | –
O=C(OCC1OC(c2nn[nH]n2)C(OC(=O)c2ccccc2)C1OC(=O)c1ccccc1)c1ccccc1 (configuration not stated) | > 100 | > 100 | > 100 | – | > 100 | > 100 | > 100 | > 100 | > 100 | > 100 | > 100 | > 100 | > 100 | > 100 | – | – | – | – | –
CCOC(=O)NC(NC(C)CC)(C(F)(F)F)C(F)(F)F (configuration not stated) | > 100 | > 100 | > 100 | > 100 | > 100 | > 100 | > 100 | > 100 | > 100 | > 100 | > 100 | > 100 | > 100 | – | – | – | – | – | –
Cn1c2ccccc2c(=NNc2ccccc2C(=O)O)c2ccccc21 | 37.7 | > 100 | 45.8 | 57.5 | 76.8 | 66.2 | 34.6 | 77.2 | 67 | 54 | 72 | 51.5 | 39.7 | 71.1 | – | – | – | – | –
CCOC(=O)CCC(NC(=O)c1ccc(Nc2nc3ccccc3nc2-c2cccs2)cc1)C(=O)OCC (configuration not stated) | > 100 | > 100 | > 100 | > 100 | > 100 | > 100 | > 100 | > 100 | > 100 | > 100 | > 100 | > 100 | > 100 | > 100 | – | – | – | – | –
NCCCN1CCN(CC(=O)O)CCN(CCCN)CCN(CC(=O)O)CC1 | > 100 | > 85.3 | > 100 | > 100 | > 100 | > 100 | > 100 | > 100 | > 100 | > 100 | > 100 | > 100 | > 100 | > 100 | – | – | – | – | –
O=C(CCCl)NNC1=NCCN1 | > 100 | > 100 | > 100 | > 100 | > 100 | > 100 | > 100 | > 100 | > 100 | > 100 | > 100 | > 100 | > 100 | > 100 | – | – | – | – | –
COc1ccc(O)c(C=NCCCN=Cc2cc(OC)ccc2O)c1 | > 100 | > 100 | 73.2 | > 100 | > 100 | 69.9 | 56.9 | > 100 | 64.7 | 84.5 | 83.5 | 69.5 | > 100 | – | – | – | – | – | –
COC(=O)CCn1cnc2c(SC)ncnc21 | > 100 | > 100 | > 100 | > 100 | > 100 | > 100 | – | > 100 | > 100 | > 100 | > 100 | > 100 | > 100 | > 100 | – | – | – | – | –
O=C(O)CC/C(=N\Nc1nsc2ccccc12)c1ccc(Cl)cc1 | 68.9 | > 100 | > 100 | 37.4 | 59.2 | > 100 | 82.4 | > 82.2 | 73.1 | 50.6 | > 54.6 | > 67.4 | > 81.5 | 89.6 | – | – | – | – | –
CC(NC(=O)OC(C)(C)C)C(=O)C(N)=O (configuration not stated) | > 100 | > 100 | > 100 | > 100 | > 100 | > 100 | > 100 | > 100 | > 100 | – | > 100 | – | > 100 | > 100 | – | – | – | – | –
c1ccc(/N=N/Nc2ccc(-c3nc4ccccc4[nH]3)cc2)nc1 | 19.7 | 27.5 | 65.4 | 38.7 | 95.8 | 47.2 | 30.1 | 36.4 | 40.5 | – | 9.79 | 62.6 | 31.6 | 27.9 | – | – | – | – | –
CC(C)OP(=O)(OC(C)C)C(=Nc1ccccc1)NNc1ccc([N+](=O)[O-])cc1 | 31.2 | 83.3 | 84.9 | 89.5 | > 100 | > 100 | 52.5 | 88.5 | > 100 | 29.1 | 56.9 | > 100 | > 100 | – | – | – | – | – | –
Cc1cc(C)c2c(=O)n(CN3CCC(O)(c4ccccc4)CC3)sc2n1 | > 100 | 30.8 | > 100 | > 100 | 83.1 | > 100 | > 100 | > 100 | 50.8 | > 100 | > 100 | – | 95.3 | > 100 | – | – | – | – | –
COc1nc2sc3c(c2c(=O)n1CCCSSCCCn1c(OC)nc2sc4c(c2c1=O)CCCC4)CCCC3 | > 100 | > 100 | > 100 | > 100 | > 100 | > 100 | > 100 | > 100 | > 100 | > 100 | > 100 | > 100 | – | > 100 | – | – | – | – | –
